In one assay the target is T1, PARP2 (Homo sapiens, UniProt Q9UGN5).
T1 construct: purchased BPS Bioscience, San Diego, CA
Description: PARP family enzyme activity inhibition screening (BPS Bioscience). Type of assay: biochemical. Conditions: 100 nM inhibitor. As to the method:
(§1) Fig. 1 Properties of PARP inhibitors. a Structures of 5 clinical therapeutic PARP inhibitors and the 2 PARP imaging agents. b Heatmap visualizing enzymatic activity screening of 10 small molecules against 12 PARP enzymes at 100 nM concentration (for additional concentrations, see Supplementary Fig. 1)
(§2) Assay was performed by BPS Bioscience, San Diego, CA. 100 µM DMSO solutions of each inhibitor were provided, and the assay was conducted after dilution to 100, 50, or 10 nM. […] Data was reported by BPS as % Enzyme Activity. Triplicates were combined to get a mean ± SD, and these were grouped and plotted onto a heatmap using Prism 7.
(§3) Supplementary Figure 1 | PARP enzyme family binding assays at additional concentrations.
(§4) histone substrate and biotin-labeled NAD+ at 100 nM (Fig. 1b), 50 nM (left) and 10 nM (right) for
(§5) each inhibitor and each enzyme.

A further assay deals with T2, PARP1 (Homo sapiens, UniProt P09874).
T2 construct: purchased BPS Bioscience, San Diego, CA
The description is as above. It is filed as biochemical. Conditions: 100 nM inhibitor. As for the experimental part: as §1, §2, §3, §4, §5

The target in a further assay is T3, PARP3 (Homo sapiens, UniProt Q9Y6F1).
T3 construct: purchased BPS Bioscience, San Diego, CA
T3 sequence (Q9Y6F1 1-533): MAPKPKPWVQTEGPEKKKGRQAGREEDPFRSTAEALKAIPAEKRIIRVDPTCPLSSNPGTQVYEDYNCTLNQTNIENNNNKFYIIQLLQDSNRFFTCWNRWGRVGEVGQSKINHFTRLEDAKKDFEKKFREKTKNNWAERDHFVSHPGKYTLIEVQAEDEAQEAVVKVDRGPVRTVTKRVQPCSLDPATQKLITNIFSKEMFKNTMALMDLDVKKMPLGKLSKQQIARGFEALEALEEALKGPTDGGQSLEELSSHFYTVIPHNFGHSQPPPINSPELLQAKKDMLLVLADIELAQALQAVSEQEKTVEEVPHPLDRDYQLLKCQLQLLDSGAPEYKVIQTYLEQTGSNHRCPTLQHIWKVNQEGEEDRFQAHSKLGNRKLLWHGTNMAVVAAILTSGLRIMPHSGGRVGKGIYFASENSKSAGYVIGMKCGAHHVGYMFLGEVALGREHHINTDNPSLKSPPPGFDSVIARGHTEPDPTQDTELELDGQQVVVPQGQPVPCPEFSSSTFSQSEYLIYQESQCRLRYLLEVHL
The description is as above. It is filed as biochemical. Conditions: 100 nM inhibitor. As for the experimental part: as §1, §2, §3, §4, §5

In a further assay the test system is JHU-LX22 cells. Description: Cytotoxicity, Alamar Blue assay. Type of assay: cell-based, human. Conditions: 24-96 h. As for the experimental part: […]. Cells were plated in 96-well plates (black, clear-bottom, Corning Incorporated) at a density of 5,000 cells/well and allowed them to attach for 24 h. All compounds were prepared as 10 mM stock solutions in DMSO and further diluted in media. Cells were treated with 0, 2, 5, and 10 µM (final solutions containing 1% DMSO) of each compound for 24, 48, 72 and 96 h. Then, media was removed and Alamar Blue reagent was added to each well. Plates were incubated at 37 °C for 4 h under protection from direct light. Fluorescence was read (bottom-read mode) using an excitation wavelength of 570 nm and an emission wavelength of 585 nm on a SpectraMax M5 microplate reader (Molecular Devices, Sunnyvale, CA, USA). The average reading values were analyzed by subtracting the background readings (wells with Alamar Blue but without cells) and compared against the untreated controls of each plate (defined as 100% viability) to determine the percentage of living cells. The experiment was carried out in three biological replicates with four parallels of each compound.
Supplementary Figure 9 | In vitro toxicity of the tested PARP inhibitors and imaging tracers on JHU-LX22 cells. (a) Assessment of viable cell population during flow cytometry after a 2 hour incubation time of several PARP inhibitors at concentrations between 0 and 5 µM. (b) Cell viability determination using Alamar Blue assays. Cells were incubated with 0, 0.2, 2, 5 or 10 µM of each compound for 24, 48, 72 or 96 h and cell viability was assessed using the Alamar Blue assay. (c) IC values derived from Alamar Blue assays at 72 h and 96 h.
Viability data represent means from three independent experiments, each with four parallels of each sample. Error bars represent the standard error (SEM). […]
Background: The colour change of resazurin is a common sign of viable cells or microbes.

The test system of a further assay is PARylation in LX22 cells. Description: PARylation inhibition assay (western blot for PAR). It is filed as cell-based, human. The conditions noted are these: 0.1 µM, 30 min incubation. As to the method:
Whole cell lysates were prepared by incubating cells with RIPA Buffer with Triton X (BP-140, Boston BioProducts) containing Protease Inhibitor (Complete EASYpacks, Sigma-Aldrich) for 30 min on ice, followed by 30 min centrifugation at 10,000 × g for 30 min at 4 °C. Protein concentration of lysates was determined using a Bicinchoninic acid (BCA) assay kit (#23225, Pierce) and following the manufacturers instructions. SDS gel electrophoresis and immunoblotting were carried out following standard procedures. Signal detection was carried out using chemiluminescent substrate (#34077, Thermo Scientific). Densitometric analysis of western blots was carried out using ImageJ (NIH). To detect PAR, we used a rabbit polyclonal anti-PAR polymer antibody (1:1000 dilution, #4336-BPC-100, Trevigen) followed by a goat anti-rabbit IgG-HRP secondary antibody (1:10,000 dilution, sc-2004, SantaCruz). B-actin was used as loading control (1:1000 dilution, A3854, Sigma-Aldrich) and was stained after stripping the blot for 30 min at room temperature using stripping buffer (Amresco).
Supplementary Figure 3 | PARylation inhibition assay.
PARPi-FL and [18F]PARPi quantify PARP inhibition, we compared their ability to inhibit PARylation
in comparison with olaparib.
inhibition. At 1 µM, the PAR signal for all three compounds is nearly completely eliminated.
Background: A western blot detects proteins with antibodies after separation by electrophoresis.

The test system of another assay is PARP1/2. Description: In vitro binding kinetics by recovery of PARPi-FL binding (flow cytometry). It is filed as cell-based, human. Conditions: JHU-LX22 cells, 0.2 µM inhibitor 25 min, washed, 0-48 h post-incubation, two phase decay fit. As to the method:
Cells were then treated with fluorescent imaging agent PARPi-FL and either imaged via confocal microscopy or measured via flow cytometry. […] Then, cells were trypsinized, subjected to flow cytometry and analyzed for the relative PARPi-FL fluorescence signal. […] Error bars represent the SD of three independent experiments with three parallels each
After the respective treatment/staining, which is described below for the different experiments, cells were washed in PBS, trypsinized, washed with flow buffer (1% BSA (w/v) in PBS), transferred to 5 mL flow cytometry tubes through the 40 µm cell strainer cap and left on ice until measurement in the flow cytometer (Fortessa II). Raw data were processed in FlowJo software in order to calculate PARPi-FL uptake per cell. Dead cells were excluded by eliminating DAPI positive cells from the analysis (Supplementary Fig. 8). Cell clumps and debris were eliminated using the corresponding gates (forward and side scatter) for the unstained cell population. PARPi-FL fluorescence was imaged in the FITC channel against side scatter (area).
We furthermore determined the duration of PARPi binding to their target site. […] Then, cells were subjected to flow cytometry as described above. […] We determined the duration of binding of the PARPi indirectly by calculating the recovery of PARP-FL binding with increasing times between PARPi and PARPi-FL treatment. Decay curves were calculated with Prism using two phase decay least squares regression.
In general terms: A flow cytometer gives signals particle by particle.

Each structure is given as a SMILES string. “Also recorded” adds a separate entry of the source. Bounds are passed on as bounds.

T1 sequence (Q9UGN5 whole entry): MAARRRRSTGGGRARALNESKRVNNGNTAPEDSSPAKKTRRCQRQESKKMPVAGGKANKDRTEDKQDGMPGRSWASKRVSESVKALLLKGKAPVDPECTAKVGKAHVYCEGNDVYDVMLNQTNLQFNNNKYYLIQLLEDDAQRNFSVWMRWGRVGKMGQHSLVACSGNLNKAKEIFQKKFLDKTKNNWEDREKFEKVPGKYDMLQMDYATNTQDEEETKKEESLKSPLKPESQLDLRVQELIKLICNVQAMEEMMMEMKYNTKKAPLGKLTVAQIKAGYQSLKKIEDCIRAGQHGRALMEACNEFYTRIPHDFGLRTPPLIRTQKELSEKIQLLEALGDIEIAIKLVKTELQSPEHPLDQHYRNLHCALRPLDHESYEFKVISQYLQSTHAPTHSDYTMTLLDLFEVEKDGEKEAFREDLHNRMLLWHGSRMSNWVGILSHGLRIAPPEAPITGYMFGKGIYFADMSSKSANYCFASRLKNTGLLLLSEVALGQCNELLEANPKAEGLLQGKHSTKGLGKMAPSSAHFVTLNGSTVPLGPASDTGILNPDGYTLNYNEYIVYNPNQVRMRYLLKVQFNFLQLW
T2 sequence (P09874 whole entry): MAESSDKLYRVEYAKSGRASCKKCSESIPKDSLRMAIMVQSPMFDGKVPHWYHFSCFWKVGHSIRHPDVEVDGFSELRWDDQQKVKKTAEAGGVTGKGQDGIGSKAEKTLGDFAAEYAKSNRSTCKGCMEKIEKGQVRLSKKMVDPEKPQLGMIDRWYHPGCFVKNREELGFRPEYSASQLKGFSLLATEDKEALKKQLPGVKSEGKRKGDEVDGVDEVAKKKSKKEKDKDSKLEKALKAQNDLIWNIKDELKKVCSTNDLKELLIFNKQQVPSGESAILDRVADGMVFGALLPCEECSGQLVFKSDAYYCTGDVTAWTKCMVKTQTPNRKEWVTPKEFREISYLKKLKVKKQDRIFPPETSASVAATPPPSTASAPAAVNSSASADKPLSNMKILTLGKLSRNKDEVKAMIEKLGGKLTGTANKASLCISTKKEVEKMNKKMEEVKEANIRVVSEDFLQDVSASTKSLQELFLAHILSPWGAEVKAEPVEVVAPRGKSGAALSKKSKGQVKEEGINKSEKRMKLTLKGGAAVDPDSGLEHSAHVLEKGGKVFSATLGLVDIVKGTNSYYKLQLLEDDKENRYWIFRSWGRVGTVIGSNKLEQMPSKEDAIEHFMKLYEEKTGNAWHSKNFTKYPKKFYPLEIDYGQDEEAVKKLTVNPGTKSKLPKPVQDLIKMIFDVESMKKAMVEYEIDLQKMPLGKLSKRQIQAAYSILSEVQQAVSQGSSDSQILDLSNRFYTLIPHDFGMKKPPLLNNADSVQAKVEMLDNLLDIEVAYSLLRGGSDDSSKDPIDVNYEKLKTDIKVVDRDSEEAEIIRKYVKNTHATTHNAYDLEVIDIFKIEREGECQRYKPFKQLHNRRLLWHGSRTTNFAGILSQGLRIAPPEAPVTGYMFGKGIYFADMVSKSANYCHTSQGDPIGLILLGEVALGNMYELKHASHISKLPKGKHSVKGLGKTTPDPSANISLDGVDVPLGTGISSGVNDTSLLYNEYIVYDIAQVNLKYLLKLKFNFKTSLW

As a reminder, the inhibition is how much of the control response was suppressed. Low readings indicate a response near the control, high ones a response far below the control. As to `CC1=CC(C)=[N+]2C1=Cc1ccc(CCC(=O)N3CCN(C(=O)c4cc(Cc5n[nH]c(=O)c6ccccc56)ccc4F)CC3)n1[B-]2(F)F` [PARPi-FL], the inhibition at 0.1 µM was > 90% on PARP2, > 90% on PARP1 and ≤ 30% at PARP3. In addition, in the assay with JHU-LX22 cells, the “Effect on JHU-LX22 cell viability, in words” value (shortened to “Effect”) was “very similar effects on JHU-LX22 cell viability as other inhibitors; also recorded: very similar effects on JHU-LX22 cell viability as olaparib”. In addition, the “Inhibition of PARylation (PAR signal)” value in the assay with PARylation in LX22 cells is “reduced PAR signal, but not complete”.
For the compound `Cn1ncnc1[C@H]1c2n[nH]c(=O)c3cc(F)cc(c23)N[C@@H]1c1ccc(F)cc1` [Talazoparib, (8S,9R)-5-Fluoro-8-(4-fluorophenyl)-9-(1-methyl-1H-1,2,4-triazol-5-yl)-2,7,8,9-tetrahydro-3H-pyrido[4,3,2-de]phthalazin-3-one], in the assay with PARP1/2, the “Retention on PARP1/2 binding sites, in words” value is listed as “longest retention”. Further, the “Effect” value with JHU-LX22 cells is on record as “most sensitive”.
Consider `O=C(c1ccc(F)cc1)N1CCN(C(=O)c2cc(Cc3n[nH]c(=O)c4ccccc34)ccc2F)CC1` [^19F-PARPi], for which the “Inhibition of PARP2 enzyme activity” value on PARP2 is given as > 90%. At PARP1, the “Inhibition of PARP1 enzyme activity” value is > 90%. Also, the “Inhibition of PARP3 enzyme activity” value on PARP3 is listed as ≤ 30%. The “Retention on PARP1/2 binding sites, in words” value in the assay with PARP1/2 is on record as “longest retention”. Further, in the assay on JHU-LX22 cells, the “Effect” value was “very similar effects on JHU-LX22 cell viability as other inhibitors; also recorded: very similar effects on JHU-LX22 cell viability as olaparib”. The “Inhibition of PARylation (PAR signal)” value in the assay with PARylation in LX22 cells is given as “nearly complete inhibition”.

The record behind these values is paper PMC5766608, “Target engagement imaging of PARP inhibitors in small-cell lung cancer” (Nature Communications, 2018).
